According to patent publication US9242006B2, “Composition of chlorin e6 stabilized within albumin for the photodynamic diagnosis and therapy of tumors” (APOCARE PHARMA GMBH, priority 2011, dated 2016):

Tests used:
[1] = Storage stability of chlorin e6 in aqueous solutions with or without human serum albumin, measured by analytical HPLC; assay type: physicochemical; details: for residual active ingredient content / residual active ingredient content (HPLC area) / residual active ingredient content compared with 5 wt. % HSA / residual content of chlorin e6 (HPLC area) / residual chlorin e6 (HPLC area): 30° C.; for residual active ingredient content / residual active ingredient content (HPLC area): 5 wt. % HSA; for residual active ingredient content: all three pH values (7.0, 7.5, 8.0); for residual active ingredient content compared with 5 wt. % HSA: 10 wt. % HSA, pH 7 and pH 7.5; for residual content of chlorin e6 (HPLC area): 20 wt. % HSA; for residual content of chlorin e6 (mean) / residual active ingredient content (mean) / residual active ingredient content (HPLC area, mean) / residual active ingredient content (bound) / residual chlorin e6 (HPLC area, mean): 5° C.; for residual content of chlorin e6 (mean): pH 8.0, 1.25 wt. % HSA; for residual active ingredient content (mean): pH 8.0, 2.5 wt. % HSA; for residual active ingredient content (HPLC area, mean) / residual active ingredient content (bound): pH 8.0, 5 wt. % HSA; for residual chlorin e6 (HPLC area, mean): pH 8.0, pure buffer
Method: In order to determine the stability of a composition comprising chlorin e6 and an albumin, three buffer solutions with pH values of 7.0, 7.5 and 8.0, each of which contained potassium dihydrogen phosphate (Merck) and disodium hydrogen phosphate (Merck) as buffer salts, were prepared and sterilised.
Starting from a 20 wt. % stock solution of human serum albumin (Biotest AG), dilute solutions comprising 10 wt. %, 5 wt. % and 0 wt. % human serum albumin were then prepared by means of the above buffer solutions. For the buffering of the 20 wt. % stock solution of human serum albumin, the buffer salts were added in the form of solids directly to 20 ml aliquots of the stock solution.
Thereafter, 2 ml of each of the various buffered solutions were introduced into brown glass bottles with crimped caps, and 40 μl of a 75 mM solution of chlorin e6 sodium salt (ORPEGEN Peptide Chemicals GmbH) in water were added thereto. In this manner there were prepared aqueous solutions of chlorin e6 sodium salt having a concentration of 0 wt. %, 1.25 wt. %, 2.5 wt. %, 5 wt. %, 10 wt. % and 20 wt. % human serum albumin which had pH values of 7.0, 7.5 and 8.0. For the purpose of reproducibility of the results, the individual solutions were each made up several times.
The solutions were re-packaged in a light-tight manner and incubated at 30° C. in a drying cabinet or at 5° C. in a refrigerator. […] Maisch GmbH); eluant: 80 mM triethylammonium phosphate buffer pH 2.25/acetonitrile). The extent of the decomposition of chlorin e6 was calculated in each case by comparing the areas under the peak belonging to chlorin e6 in the HPLC diagram before and after storage.

[2] = 48 hours after administration; cited from earlier work

C=Cc1c(C)c2cc3nc(c(CC(=O)O)c4[nH]c(cc5nc(cc1[nH]2)C(C)=C5CC)c(C)c4C(=O)O)[C@@H](CCC(=O)O)[C@@H]3C [chlorin e6]
residual active ingredient content ([1]; 4 weeks): > 95% | residual active ingredient content (HPLC area) ([1]; 4 weeks, pH 7.0): 95.3 % area | residual active ingredient content (HPLC area) ([1]; 4 weeks, pH 7.5): 97.5 % area | residual active ingredient content (HPLC area) ([1]; 4 weeks, pH 8.0): 98.6 % area | residual active ingredient content compared with 5 wt. % HSA ([1]; 4 weeks): slightly higher | residual content of chlorin e6 (HPLC area) ([1]; 4 weeks, pH 7.0): 94.6 % area | residual content of chlorin e6 (HPLC area) ([1]; 4 weeks, pH 7.5): 96.4 % area | residual content of chlorin e6 (HPLC area) ([1]; 4 weeks, pH 8.0): 96.6 % area | residual chlorin e6 (HPLC area) ([1]; 4 weeks, pure buffer, no HSA, pH 7.0): 1.9 % area | residual chlorin e6 (HPLC area) ([1]; 4 weeks, pure buffer, no HSA, pH 7.5): 2.4 % area | residual chlorin e6 (HPLC area) ([1]; 4 weeks, pure buffer, no HSA, pH 8.0): 3.6 % area | residual content of chlorin e6 (mean) ([1]; 6 months): approximately 83.6% | residual active ingredient content (mean) ([1]; 6 months): approximately 96.6% | residual active ingredient content (HPLC area, mean) ([1]; 6 months): 97.9 % area | residual active ingredient content (bound) ([1]; 6 months): > 97% | residual chlorin e6 (HPLC area, mean) ([1]; 6 months, no HSA): 1.1 % area | residual content of chlorin e6 (mean) ([1]; 9 months): approximately 84.9% | residual active ingredient content (mean) ([1]; 9 months): approximately 93.8% | residual active ingredient content (HPLC area, mean) ([1]; 9 months): 96.4 % area | residual active ingredient content (bound) ([1]; 9 months): > 96% | residual chlorin e6 (HPLC area, mean) ([1]; 9 months, no HSA): 1.74 % area | residual active ingredient content ([1]; 10 weeks): > 94% | residual active ingredient content (HPLC area) ([1]; 10 weeks, pH 7.0): 94.1 % area | residual active ingredient content (HPLC area) ([1]; 10 weeks, pH 7.5): 96.0 % area | residual active ingredient content (HPLC area) ([1]; 10 weeks, pH 8.0): 97.8 % area | residual active ingredient content compared with 5 wt. % HSA ([1]; 10 weeks): slightly higher | residual content of chlorin e6 (HPLC area) ([1]; 10 weeks, pH 7.0): 91.9 % area | residual content of chlorin e6 (HPLC area) ([1]; 10 weeks, pH 7.5): 94.0 % area | residual content of chlorin e6 (HPLC area) ([1]; 10 weeks, pH 8.0): 95.9 % area | residual chlorin e6 (HPLC area) ([1]; 10 weeks, pure buffer, no HSA, pH 7.0): 0 % area | residual chlorin e6 (HPLC area) ([1]; 10 weeks, pure buffer, no HSA, pH 7.5): 0.52 % area | residual chlorin e6 (HPLC area) ([1]; 10 weeks, pure buffer, no HSA, pH 8.0): 0.89 % area | residual content of chlorin e6 (mean) ([1]; 12 months): approximately 69.5% | residual active ingredient content (mean) ([1]; 12 months): approximately 93.6% | residual active ingredient content (HPLC area, mean) ([1]; 12 months): 96.7 % area | residual active ingredient content (bound) ([1]; 12 months): > 96% | residual chlorin e6 (HPLC area, mean) ([1]; 12 months, no HSA): 0.26 % area | residual chlorin e6 (HPLC area) ([1]; 4 days, addition of Na caprylate or N-acetyl-DL-tryptophan, no human serum albumin): 68.8 % area | residual chlorin e6 (HPLC area) ([1]; 4 days, buffer solution pH 8, 5 wt. % human serum albumin): 97.8 % area | residual chlorin e6 (HPLC area) ([1]; 4 days, non-buffered solution adjusted to pH 7, 5% human serum albumin): 97.0 % area | residual chlorin e6 (HPLC area) ([1]; 4 days, pure buffer solution pH 8, no human serum albumin): 59.1 % area | storage life of aqueous solution of chlorin e6 with human serum albumin ([1]; storage at 2 to 8° C., extrapolated from data of FIGS. 1 to 6): at least 12 months | active substance detectable in the human organism [2]: only traces
